Data as given in US8129361B2, “Amine compound and pharmaceutical use thereof” (Mitsubishi Tanabe Pharma Corporation, priority 2007, dated 2012).

Experiments:
Assay type in all cases: in vivo
[1] = test system: peripheral blood lymphocyte number; test: Peripheral blood lymphocyte number decreasing action in mouse; settings: ip, male BALB/cAnNCrj mice, intraperitoneal, 24 hr after administration, read-out: ED50 (dose necessary for reducing the lymphocyte count of the vehicle group (100%) by 50%)
[2] = test system: peripheral blood lymphocyte number; test: Peripheral blood lymphocyte number decreasing action in rat; settings: male F344 rats, oral, 24 hr after administration, read-out: ED50 (dose necessary for reducing the lymphocyte count of the vehicle group (100%) by 50%)
heart rate in rat = test: Action on heart rate in rat (telemetry, oral administration); settings: male Crl:CD(SD) rats, up to the dose of 30 mg/kg body weight, measured to 24 hr after administration
Method: Action on Heart Rate in Rat
Male Crl:CD(SD) rats were anesthetized by intraperitoneal administration of Nembutal (manufactured by Dainippon Sumitomo Pharma Co., Ltd.), and a pressure sensor connected to a telemetry transmitter (TL11M2-C50-PTX, manufactured by Data Sciences International) was inserted into the abdominal aorta and a transmitter was subcutaneously placed in the abdomen. The blood pressure and heart rate data were recorded by an analysis software (Dataquest A.R.T., manufactured by Data Sciences International) via a receiver (RPC-1, manufactured by Data Sciences International). After confirmation of recovery of circadian rhythm of the heart rate, the rats were subjected to the experiment. The compound of the present invention was suspended in 0.5% hydroxypropylmethylcellulose (manufactured by Shin-Etsu Chemical Co., Ltd.) and orally administered. The heart rate was measured from 72 hr before the administration to 24 hr after the administration.

SMILES	ED50 [1]	ED50 [2]	Effect on heart rate (heart rate in rat)
Cl.NC(CO)(CO)CCc1ccc(OCCCc2ccc(C(F)(F)F)cc2)c(C(F)(F)F)c1 [Compound 11-4, 2-amino-2-(2-{3-trifluoromethyl-4-[3-(4-trifluoromethylphenyl)propoxy]phenyl}ethyl)propane-1,3-diol hydrochloride]	0.06 mg/kg	0.09 mg/kg	did not reduce the heart rate
Cl.NC(CO)(CO)CCc1ccc(OCCCc2cccc(C(F)(F)F)c2)c(C(F)(F)F)c1 [Compound 12-4, 2-amino-2-(2-{3-trifluoromethyl-4-[3-(3-trifluoromethylphenyl)propoxy]phenyl}ethyl)propane-1,3-diol hydrochloride]	0.04 mg/kg	0.11 mg/kg	did not reduce the heart rate
